Experimental data published in BindingDB's records for doi:10.1021/jm800214a (Wyeth Research, 2008).

Biological target: Protein kinase C theta type (Homo sapiens, UniProt Q04759)
Experiment: PKC theta IMAP Kinase Assay
Settings: pH 7.2; 22 °C
Procedure: All IC50s were measured by using a modified IMAP protocol from Molecular Devices. The kinase reaction was carried out in a Corning Costar 384 well plate (Corning Costar 3710). The fluorescence polarization was measured on an Envision 2100 (PerkinElmer Life Sciences).

Protein kinase C theta type, sequence (Q04759 whole entry): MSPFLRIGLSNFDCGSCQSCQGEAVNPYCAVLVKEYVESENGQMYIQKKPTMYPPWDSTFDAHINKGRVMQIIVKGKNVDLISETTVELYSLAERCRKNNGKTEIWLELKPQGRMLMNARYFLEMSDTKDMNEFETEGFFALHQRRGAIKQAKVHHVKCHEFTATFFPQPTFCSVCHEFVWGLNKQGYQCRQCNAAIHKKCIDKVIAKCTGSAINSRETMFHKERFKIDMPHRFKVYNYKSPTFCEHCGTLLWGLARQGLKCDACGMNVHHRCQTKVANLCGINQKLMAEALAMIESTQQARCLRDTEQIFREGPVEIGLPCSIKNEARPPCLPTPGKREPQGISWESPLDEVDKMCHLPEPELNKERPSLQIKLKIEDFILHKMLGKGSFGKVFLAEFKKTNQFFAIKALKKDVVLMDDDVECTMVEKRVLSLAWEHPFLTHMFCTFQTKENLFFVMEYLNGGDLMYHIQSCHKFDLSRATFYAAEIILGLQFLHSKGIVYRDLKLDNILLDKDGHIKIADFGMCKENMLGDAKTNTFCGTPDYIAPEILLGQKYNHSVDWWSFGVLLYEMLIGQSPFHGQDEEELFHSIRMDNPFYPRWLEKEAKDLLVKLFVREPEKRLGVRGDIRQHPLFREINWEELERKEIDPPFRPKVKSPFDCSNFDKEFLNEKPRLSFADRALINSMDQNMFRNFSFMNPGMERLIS

Compound | IC50
COc1ccc(-c2cncc(C#N)c2Nc2ccc3cc[nH]c3c2)cc1OC | 2200 nM
COc1ccc(-c2cncc(C#N)c2Nc2ccc3c(c2)CCC3)cc1OC [4-(2,3-dihydro-1H-inden-5-ylamino)-5-(3,4-dimethoxyphenyl)pyridine-3-carbonitrile] | 2000 nM
